The values that follow come from patent publication EP0594890A1, “Polycyclic compounds, their preparation and their use as phosphodiesterases inhibitors” (TSUMURA & CO., priority 1992, dated 1994).

Each structure is given as a SMILES string.

Experiment [1] concerns Bovine heart PDE. Description: Bovine heart PDE inhibition activity. In kind it is biochemical. The settings on record: substrate [³H]-cyclic AMP, 37°C for 30 minutes; compound concentration not given. As for the experimental part:
[Bovine heart PDE inhibition activity]
Placed in a test tube were 50 µℓ of 0.5 M tris-HCl buffer (pH 7.5), 50 µℓ of 50 mM magnesium chloride, 50 µℓ of an enzyme solution (bovine heart, product of Boheringer Mannheim Yamanouchi Co., Ltd.), and a dimethylsulfoxide (DMSO) solution of the compound obtained in each example. Purified water was then added to a total volume of 450 µℓ, followed by incubation at 37°C for 3 minutes. Then, 50 µℓ or [³H]-cyclic AMP (0.01 mM, 1.0 x 1.0⁻⁶ dpm) as a substrate were added to initiate a reaction. After incubated at 37°C for 30 minutes, the test tube was heated for 3 minutes in a boiling water bath to terminate the reaction. After cooling, snake venem (500 µg) was added, followed by incubation at 37°C for 30 minutes. An ion-exchange resin ("Dowex-AG1-X8", trade name) was then added, followed by stirring and centrifugation. A supernatant was sampled and its radioactivity was measured by a liquid scintillation counter. Percent inhibition was determined in accordance with the following formula: [formula] where, C: Radioactivity when the compound in the example was not contained. S: Radioactivity when the compound in the example was added.

In experiment [2] the test system is Platelet phosphodiesterase (PDE). Description: Platelet phosphodiesterase (PDE) inhibition activity in washed platelets. It counts as biochemical, rabbit. The settings on record: 500 µM as the final concentration of the compound; washed platelet mixture; substrate [³H]-cyclic AMP, 37°C for 30 minutes. From the text:
[Preparation of washed platelets]
A rabbit was held on its back on a fixing table and, under non-anesthesia, the leg femoral artery was cannulated. Next, 2 mℓ of a 3.8% aqueous solution of sodium citrate were placed in a 20-mℓ plastic syringe and 18 mℓ of the arterial blood were collected. The syringe was caused to fall down 2-3 times so that its contents were mixed. The above procedures were repeated using 3-4 syringes. The blood so collected was transferred into a plastic-made test tube and centrifuged at 800 rpm for 10 minutes at room temperature to settle blood cells, whereby an upper layer (PRP) was obtained. The PRP was next centrifuged at 3000 rpm for 10 minutes so that platelets were collected. After 12.3 mM tris-HCl buffer (pH 7.4) containing 0.137 M of NaCl, 1.54 mM of EDTA and 20 mM of glucose was added to the platelets and pipetting was conducted thoroughly, centrifugation was conducted at 3000 rpm for 10 minutes. The above procedures were repeated twice. Precipitated platelets were re-suspended in the above tris-HCl buffer at a platelet concentration of 6.5 x 10⁻⁶ platelets/µℓ. They were used as washed platelets in the subsequent experiments.
[Platelet phosphodiesterase (PDE) inhibition activity]
Placed in a test tube were 50 µℓ of 0.5 M tris-HCl buffer (pH 7.5), 50 µℓ of 50 mM magnesium chloride, 200 µℓ of the washed platelet mixture, and a dimethylsulfoxide (DMSO) solution of the compound (500 µM as the final concentration of the compound) obtained in each example. Purified water was added to a total volume of 450 µℓ, followed by incubation at 37°C for 3 minutes. Then, 50 µℓ off [³H]-cyclic AMP (0.01 mM, 1.0 x 1.0⁻⁶ dpm) as a substrate were added to initiate a reaction. […] A supernatant was sampled and its radioactivity was measured by a liquid scintillation counter. Percent inhibition was determined in accordance with the following formula: [formula] where, C: Radioactivity when the compound in the example was not contained. S: Radioactivity when the compound in the example was added.

On to `COc1cc2c(c(OC)c1OC)-c1c(cc(OC)c(OC)c1OC)C[C@@H]1COC(=O)C1=C2` (single isomer, unassigned) [Test Compound 7], for which, in experiment [1], the “Inhibition rate (%) Bovine heart PDE” value is 50.9%. For `COc1cc2c(c(OC)c1OC)-c1c(cc(O)c(O)c1OC)C[C@@H]1COC(=O)C1=C2` [Test Compound 1, (3aS,Rbiar)-3a,4-Dihydro-6,7-dihydroxy-8,9,10,11-tetramethoxydibenzo[4,5:6,7)cycloocta[1,2-c]furan-1(3H)-one], the “Inhibition rate (%) Bovine heart PDE” value in experiment [1] came out at 85.0%. On to `COc1cc2c(c(OC)c1OC)-c1c(cc(OC)c3c1OCO3)C[C@H]1COC(=O)C1=C2` [Test Compound 5, (3aR,Sbiar)-3a,4-Dihydro-6,9,10,11-tetramethoxy-7,8-methylenedioxybenzo[4,5:6,7]cycloocta[1,2-c]furan-1(3H)-one], for which the “Inhibition rate (%) Platelet PDE” value in experiment [2] came to 44.0%. Also, in experiment [1], the “Inhibition rate (%) Bovine heart PDE” value amounted to 2.8%.

As to `COc1cc2c(c(OC)c1OC)-c1c(cc3c(c1OC)OCO3)C[C@@H]1COC(=O)C1=C2` (single isomer, unassigned) [Test Compound 2], the “Inhibition rate (%) Platelet PDE” value in experiment [2] is listed as 25.3%. Moreover, in experiment [1], the “Inhibition rate (%) Bovine heart PDE” value was determined as 0.0%. In the case of `COc1cc2c(c(OC)c1OC)-c1c(cc(OC)c(OC)c1OC)C[C@@H]1COC(=O)C1=C2` (single isomer, unassigned) [Test Compound 8], in experiment [1], the “Inhibition rate (%) Bovine heart PDE” value is on record as 36.3%.

For `COc1cc2c(c(OC)c1OC)-c1c(cc(O)c(O)c1OC)CC1COC(=O)C1=C2` (stereo not drawn) [Test Compound 6, (3aRS,SRbiar)-3a,4-Dihydro-6,7-dihydroxy-8,9,10,11-tetramethoxydibenzo[4,5:6,7]cycloocta[1,2-c]-furan-1(3H)-one], the “Inhibition rate (%) Bovine heart PDE” value in experiment [1] is reported as 90.5%. In the case of `COc1cc2c(c(OC)c1OC)-c1c(cc(OC)c3c1OCO3)C[C@@H]1COC(=O)C1=C2` [Test Compound 3, (3aS,Rbiar)-3a,4-Dihydro-6,9,10,11-tetramethoxy-7,8-methylenedioxydibenzo[4,5:6,7)cycloocta[1,2-c]furan-1(3H)-one], the “Inhibition rate (%) Bovine heart PDE” value in experiment [1] is 19.5%. Regarding `COc1cc2c(c(OC)c1OC)-c1c(cc3c(c1OC)OCO3)C[C@@H]1COC(=O)C1=C2` (single isomer, unassigned) [Test Compound 4, (3as,Sbiar)-3a,4-Dihydro-8,9,10,11-tetramethoxy-6,7-methylenedioxydibenzo[4,5:6,7]cycloocta-[1,2-c]furan-1(3H)-one], the “Inhibition rate (%) Platelet PDE” value in experiment [2] was 23.1%. For the same compound, the “Inhibition rate (%) Bovine heart PDE” value in experiment [1] is on record as 0.0%.
